This note sets out measurements from ChEMBL document CHEMBL1157878, “Synthesis and antiproliferative properties of ibuprofen-oligo(3-hydroxybutyrate) conjugates” (Eur J Med Chem, 2010).

Experiment [1] has as its system HCT-116. The experiment is described as follows: Cytotoxicity against human HCT116 cells after 72 hrs by MTT assay. In kind it is functional, cell-based. The conditions noted are these: HCT-116, 72 h. (In general: Formazan colour is commonly taken as a measure of viable cells.)
Experiment [2] concerns HT-29. The experiment is described as follows: Cytotoxicity against human HT-29 cells after 72 hrs by MTT assay. It counts as functional, cell-based. To be noted: HT-29, 72 h.

The IC50 is the concentration at which inhibition is half-maximal. A higher IC50 goes with weaker potency in that assay. For `CC(C)Cc1ccc(C(C)C(=O)OC(C)CC(=O)OC(C)CC(=O)OC(C)CC(=O)OC(C)CC(=O)OC(C)CC(=O)OC(C)CC(=O)O)cc1` (stereo unspecified), the IC50 in experiment [1] stood at 53 µM; in experiment [2] it was 77 µM.

For the compound `CC(C)Cc1ccc(C(C)C(=O)OC(C)CC(=O)OC(C)CC(=O)OC(C)CC(=O)OC(C)CC(=O)O)cc1` (stereo unspecified), the IC50 in experiment [1] turned out to be 31 µM; in experiment [2], 37 µM.

As for `CC(C)Cc1ccc(C(C)C(=O)O)cc1` (stereo unspecified) [IBUPROFEN], the figures for the half-inhibitory concentration (IC50) in experiment [1] and in experiment [2] were 448 µM and 552 µM, respectively.
